Among the data in patent US10487092B2, “Pyrazolopyridinamines as MKNK1 and MKNK2 inhibitors” (BAYER PHARMA AKTIENGESELLSCHAFT, priority 2014, dated 2019) are IC50 values, retold here.

human full-length MKNK1, sequence (Q9BUB5 other isoform, or with tags, fused parts or gaps T344D): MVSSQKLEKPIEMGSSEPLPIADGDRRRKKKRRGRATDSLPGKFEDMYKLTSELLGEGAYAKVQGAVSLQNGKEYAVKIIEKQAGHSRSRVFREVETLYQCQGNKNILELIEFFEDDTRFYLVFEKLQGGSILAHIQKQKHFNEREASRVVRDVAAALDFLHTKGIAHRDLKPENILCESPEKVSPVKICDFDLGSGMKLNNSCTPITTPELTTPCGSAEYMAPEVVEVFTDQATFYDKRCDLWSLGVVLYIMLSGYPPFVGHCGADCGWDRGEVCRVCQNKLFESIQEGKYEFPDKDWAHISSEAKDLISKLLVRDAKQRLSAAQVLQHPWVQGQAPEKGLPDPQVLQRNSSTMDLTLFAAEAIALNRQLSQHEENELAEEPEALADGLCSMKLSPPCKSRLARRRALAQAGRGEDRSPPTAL

The test has as its target human full-length MKNK1 (Homo sapiens (Human), UniProt Q9BUB5, T344D). The test can be described thus: MKNK1 kinase high ATP assay (TR-FRET). The class given is biochemical. Conditions: high ATP (2 mM), 15 min preincubation with enzyme; read-out: MKNK1 IC50. The protocol:
MKNK1 Kinase High ATP Assay
MKNK1-inhibitory activity at high ATP of compounds of the present invention after their preincubation with MKNK1 was quantified employing the TR-FRET-based MKNK1 high ATP assay as described in the following paragraphs.
A recombinant fusion protein of Glutathione-S-Transferase (GST, N-terminally) and human full-length MKNK1 (amino acids 1-424 and T344D of accession number BAA 19885.1), expressed in insect cells using baculovirus expression system and purified via glutathione sepharose affinity chromatography, was purchased from Carna Biosciences (product no 02-145) and used as enzyme. As substrate for the kinase reaction the biotinylated peptide biotin-Ahx-IKKRKLTRRKSLKG (SEQ ID NO: 1, C-terminus in amide form) was used, which can be purchased e.g. from the company Biosyntan (Berlin-Buch, Germany).
For the assay 50 nL of a 100 fold concentrated solution of the test compound in DMSO was pipetted into a black low volume 384 well microtiter plate (Greiner Bio-One, Frickenhausen, Germany), 2 μL of a solution of MKNK1 in aqueous assay buffer [50 mM HEPES pH 7.5, 5 mM MgCl2, 1.0 mM dithiothreitol, 0.005% (v/v) Nonidet-P40 (Sigma)] was added and the mixture was incubated for 15 min at 22° C. to allow pre-binding of the test compounds to the enzyme before the start of the kinase reaction. Then the kinase reaction was started by the addition of 3 μL of a solution of adenosine-tri-phosphate (ATP, 3.3 mM=>final conc. in the 5 μL assay volume is 2 mM) and substrate (0.1 μM=>final conc. in the 5 μL assay volume is 0.06 μM) in assay buffer and the resulting mixture was incubated for a reaction time of 30 min at 22° C. The concentration of MKNK1 was adjusted depending of the activity of the enzyme lot and was chosen appropriate to have the assay in the linear range, typical concentrations were in the range of 0.003 μg/mL. The reaction was stopped by the addition of 5 μL of a solution of TR-FRET detection reagents (5 nM streptavidine-XL665 [Cisbio Bioassays, Codolet, France] and 1 nM anti-ribosomal protein S6 (pSer236)-antibody from Invitrogen [#44921G] and 1 nM LANCE EU-W1024 labeled ProteinG [Perkin-Elmer, product no. AD0071]) in an aqueous EDTA-solution (100 mM EDTA, 0.1% (w/v) bovine serum albumin in 50 mM HEPES pH 7.5).
The resulting mixture was incubated for 1 h at 22° C. to allow the formation of complex between the phosphorylated biotinylated peptide and the detection reagents. Subsequently the amount of phosphorylated substrate was evaluated by measurement of the resonance energy transfer from the Eu-chelate to the streptavidine-XL. Therefore, the fluorescence emissions at 620 nm and 665 nm after excitation at 350 nm were measured in a TR-FRET reader, e.g. a Rubystar (BMG Labtechnologies, Offenburg, Germany) or a Viewlux (Perkin-Elmer). The ratio of the emissions at 665 nm and at […] was taken as the measure for the amount of phosphorylated substrate. The data were normalised (enzyme reaction without inhibitor=0% inhibition, all other assay components but no enzyme=100% inhibition).
`CN(C)C(=O)C1CCc2c(sc3ncnc(Nc4ccn5nccc5c4)c23)C1` (racemic) [Example 1, (RS) N,N-Dimethyl-4-(pyrazolo[1,5-a]pyridin-5-ylamino)-5,6,7,8-tetrahydro[1]benzothieno[2,3-d]pyrimidine-7-carboxamide]: the IC50 is 64 nM.

As to `O=C(O)[C@H]1CCc2c(sc3ncnc(Nc4ccn5nccc5c4)c23)C1` [Example 2, (7S)-4-(Pyrazolo[1,5-a]pyridin-5-ylamino)-5,6,7,8-tetrahydro[1]benzothieno[2,3-d]pyrimidine-7-carboxylic acid], the IC50 was 707 nM.

Turning to `C[C@@H]1COCCN1C(=O)[C@H]1CCc2c(sc3ncnc(Nc4ccn5nccc5c4)c23)C1` [Example 3, [(3R)-3-Methylmorpholin-4-yl][(7S)-4-(pyrazolo[1,5-a]pyridin-5-ylamino)-5,6,7,8-tetrahydro[1]benzothieno[2,3-d]pyrimidin-7-yl]methanone], the IC50 turned out to be 80 nM.

Take `CN(C)CCN(C)C(=O)[C@H]1CCc2c(sc3ncnc(Nc4ccn5nccc5c4)c23)C1` [Example 4, (7S)—N-[2-(Dimethylamino)ethyl]-N-methyl-4-(pyrazolo[1,5-a]pyridin-5-ylamino)-5,6,7,8-tetrahydro[1]benzothieno[2,3-d]pyrimidine-7-carboxamide]: the IC50 was 21 nM.

On to `C[C@@H]1CN(C(=O)[C@H]2CCc3c(sc4ncnc(Nc5ccn6nccc6c5)c34)C2)C[C@H](C)O1` [Example 5, [(2R,6S)-2,6-Dimethylmorpholin-4-yl][(7S)-4-(pyrazolo[1,5-a]pyridin-5-ylamino)-5,6,7,8-tetrahydro[1]benzothieno[2,3-d]pyrimidin-7-yl]methanone], for which the IC50 was determined as 21 nM.

Regarding `CN(C)[C@@H]1CCN(C(=O)[C@H]2CCc3c(sc4ncnc(Nc5ccn6nccc6c5)c34)C2)C1` [Example 6, [(3R)-3-(Dimethylamino)pyrrolidin-1-yl][(7S)-4-(pyrazolo[1,5-a]pyridin-5-ylamino)-5,6,7,8-tetrahydro[1]benzothieno[2,3-d]pyrimidin-7-yl]methanone], the IC50 is 12 nM.

Consider `C[C@H]1COCCN1C(=O)[C@H]1CCc2c(sc3ncnc(Nc4ccn5nccc5c4)c23)C1` [Example 7, [(3S)-3-Methylmorpholin-4-yl][(7S)-4-(pyrazolo[1,5-a]pyridin-5-ylamino)-5,6,7,8-tetrahydro[1]benzothieno[2,3-d]pyrimidin-7-yl]methanone], for which the half-inhibitory concentration (IC50) amounted to 65 nM.

Turning to `COCCN(C)C(=O)[C@H]1CCc2c(sc3ncnc(Nc4ccn5nccc5c4)c23)C1` [Example 8, (7S)—N-(2-Methoxyethyl)-N-methyl-4-(pyrazolo[1,5-a]pyridin-5-ylamino)-5,6,7,8-tetrahydro[1]benzothieno[2,3-d]pyrimidine-7-carboxamide], the IC50 is 42 nM.

In the case of `C[C@H]1CN(C(=O)[C@H]2CCc3c(sc4ncnc(Nc5ccn6nccc6c5)c34)C2)C[C@H](C)O1` [Example 9, [(2S,6S)-2,6-Dimethylmorpholin-4-yl][(7S)-4-(pyrazolo[1,5-a]pyridin-5-ylamino)-5,6,7,8-tetrahydro[1]benzothieno[2,3-d]pyrimidin-7-yl]methanone], the IC50 was found to be 49 nM.

For the molecule `C[C@@H]1CN(C(=O)[C@H]2CCc3c(sc4ncnc(Nc5ccn6nccc6c5)c34)C2)C[C@@H](C)O1` [Example 10, [(2R,6R)-2,6-Dimethylmorpholin-4-yl][(7S)-4-(pyrazolo[1,5-a]pyridin-5-ylamino)-5,6,7,8-tetrahydro[1]benzothieno[2,3-d]pyrimidin-7-yl]methanone], the IC50 turned out to be 33 nM.

In the case of `O=C([C@H]1CCc2c(sc3ncnc(Nc4ccn5nccc5c4)c23)C1)N1CCOCC1` [Example 11, Morpholin-4-yl[(7S)-4-(pyrazolo[1,5-a]pyridin-5-ylamino)-5,6,7,8-tetrahydro[1]benzothieno[2,3-d]pyrimidin-7-yl]methanone], the IC50 worked out at 62 nM.

As for `O=C([C@H]1CCc2c(sc3ncnc(Nc4ccn5nccc5c4)c23)C1)N1CC2CC2C1` (stereo partly drawn) [Example 12, 3-Azabicyclo[3.1.0]hex-3-yl[(7S)-4-(pyrazolo[1,5-a]pyridin-5-ylamino)-5,6,7,8-tetrahydro[1]benzothieno[2,3-d]pyrimidin-7-yl]methanone], the IC50 was 24 nM.

For the molecule `C[C@@H]1COC[C@H](C)N1C(=O)[C@H]1CCc2c(sc3ncnc(Nc4ccn5nccc5c4)c23)C1` [Example 13, [(3R,5S)-3,5-Dimethylmorpholin-4-yl][(7S)-4-(pyrazolo[1,5-a]pyridin-5-ylamino)-5,6,7,8-tetrahydro[1]benzothieno[2,3-d]pyrimidin-7-yl]methanone], the IC50 is 17 nM.

Consider `C[C@@H]1COC[C@@H](C)N1C(=O)[C@H]1CCc2c(sc3ncnc(Nc4ccn5nccc5c4)c23)C1` [Example 14, [(3R,5R)-3,5-Dimethylmorpholin-4-yl][(7S)-4-(pyrazolo[1,5-a]pyridin-5-ylamino)-5,6,7,8-tetrahydro[1]benzothieno[2,3-d]pyrimidin-7-yl]methanone], for which the IC50 stood at 7 nM.

On to `CC(C)N(C)C(=O)[C@H]1CCc2c(sc3ncnc(Nc4ccn5nccc5c4)c23)C1` [Example 16, (7S)—N-Isopropyl-N-methyl-4-(pyrazolo[1,5-a]pyridin-5-ylamino)-5,6,7,8-tetrahydro[1]benzothieno[2,3-d]pyrimidine-7-carboxamide], for which the IC50 was 19 nM.

For `CN(C)C(=O)[C@H]1CCc2c(sc3ncnc(Nc4ccn5nccc5c4)c23)C1` [Example 17, (7S)—N,N-Dimethyl-4-(pyrazolo[1,5-a]pyridin-5-ylamino)-5,6,7,8-tetrahydro[1]benzothieno[2,3-d]pyrimidine-7-carboxamide], the IC50 is 33 nM.

As for `CN(CC(F)F)C(=O)[C@H]1CCc2c(sc3ncnc(Nc4ccn5nccc5c4)c23)C1` [Example 18, (7S)—N-(2,2-Difluoroethyl)-N-methyl-4-(pyrazolo[1,5-a]pyridin-5-ylamino)-5,6,7,8-tetrahydro[1]benzothieno[2,3-d]pyrimidine-7-carboxamide], the IC50 stood at 19 nM.

`CN(CC(C)(C)O)C(=O)[C@H]1CCc2c(sc3ncnc(Nc4ccn5nccc5c4)c23)C1` [Example 19, (7S)—N-(2-Hydroxy-2-methylpropyl)-N-methyl-4-(pyrazolo[1,5-a]pyridin-5-ylamino)-5,6,7,8-tetrahydro[1]benzothieno[2,3-d]pyrimidine-7-carboxamide]: the IC50 turned out to be 21 nM.

Regarding `O=C([C@H]1CCc2c(sc3ncnc(Nc4ccn5nccc5c4)c23)C1)N1CCC1` [Example 20, Azetidin-1-yl[(7S)-4-(pyrazolo[1,5-a]pyridin-5-ylamino)-5,6,7,8-tetrahydro[1]benzothieno[2,3-d]pyrimidin-7-yl]methanone], the IC50 is 26 nM.

Turning to `CCN(CCO)C(=O)[C@H]1CCc2c(sc3ncnc(Nc4ccn5nccc5c4)c23)C1` [Example 21, (7S)—N-Ethyl-N-(2-hydroxyethyl)-4-(pyrazolo[1,5-a]pyridin-5-ylamino)-5,6,7,8-tetrahydro[1]benzothieno[2,3-d]pyrimidine-7-carboxamide], the IC50 stood at 19 nM.

In the case of `N#CC1CN(C(=O)[C@H]2CCc3c(sc4ncnc(Nc5ccn6nccc6c5)c34)C2)C1` [Example 22, 1-{[(7S)-4-(Pyrazolo[1,5-a]pyridin-5-ylamino)-5,6,7,8-tetrahydro[1]benzothieno[2,3-d]pyrimidin-7-yl]carbonyl}azetidine-3-carbonitrile], the concentration for half-maximal inhibition (IC50) turned out to be 21 nM.

As to `O=C([C@H]1CCc2c(sc3ncnc(Nc4ccn5nccc5c4)c23)C1)N1CC(F)(F)C1` [Example 23, (3,3-Difluoroazetidin-1-yl)[(7S)-4-(pyrazolo[1,5-a]pyridin-5-ylamino)-5,6,7,8-tetrahydro[1]benzothieno[2,3-d]pyrimidin-7-yl]methanone], the IC50 stood at 23 nM.

As to `O=C([C@H]1CCc2c(sc3ncnc(Nc4ccn5nccc5c4)c23)C1)N1CC(O)C1` [Example 24, (3-Hydroxyazetidin-1-yl)[(7S)-4-(pyrazolo[1,5-a]pyridin-5-ylamino)-5,6,7,8-tetrahydro[1]benzothieno[2,3-d]pyrimidin-7-yl]methanone], the IC50 is 20 nM.
